Experimental data published in US11566007B2, “Ras inhibitors” (Revolution Medicines, Inc., priority 2019, dated 2023).
pIC50: −log10 of the molar value.

What was measured:
Assay type in all cases: biochemical
NRAS Q61K = NRAS Q61K (Homo sapiens (Human), UniProt P01111+P62937, Q61K); experiment: Ras-Raf (BRAF RBD) disruption / FRET / MOA assay, NRAS Q61K; conditions: NRAS Q61K; Ras-Raf disruption/FRET/MOA assay; read-out: IC50* NRAS Q61K FRET data
Procedure, shortened: (§1)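 TR-FRET disruption of nucleotide-loaded Ras binding to BRAF RBD via compound-driven ternary complex with cyclophilin A. Compound as 10-point 3-fold series from 30 μM final, 3 h at 25° C, then anti-His Eu-W1024 (10 nM) and anti-GST allophycocyanin (50 nM) for 1.5 h. IC50 from decreased FRET ratio versus DMSO.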

NRAS Q61R = NRAS Q61R (Homo sapiens (Human), UniProt P01111+P62937, Q61R); experiment: Ras-Raf (BRAF RBD) disruption / FRET / MOA assay, NRAS Q61R; conditions: NRAS Q61R; Ras-Raf disruption/FRET/MOA assay; read-out: IC50* NRAS Q61R FRET data
Chain of NRAS Q61R (P01111 whole entry Q61R): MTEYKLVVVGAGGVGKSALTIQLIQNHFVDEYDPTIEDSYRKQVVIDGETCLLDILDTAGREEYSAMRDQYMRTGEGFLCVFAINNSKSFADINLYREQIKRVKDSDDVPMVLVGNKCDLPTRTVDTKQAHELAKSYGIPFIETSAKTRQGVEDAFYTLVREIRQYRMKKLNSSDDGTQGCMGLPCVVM
Chain of NRAS Q61R (P62937 whole entry): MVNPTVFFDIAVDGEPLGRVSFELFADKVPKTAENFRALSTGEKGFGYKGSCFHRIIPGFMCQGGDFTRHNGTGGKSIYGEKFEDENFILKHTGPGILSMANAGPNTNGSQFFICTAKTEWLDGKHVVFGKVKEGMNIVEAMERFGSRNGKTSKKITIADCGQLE
Procedure, shortened: as §1

NRAS WT = NRAS WT (Homo sapiens (Human), UniProt P01111+P62937); experiment: Ras-Raf (BRAF RBD) disruption / FRET / MOA assay, NRAS WT; conditions: read-out: IC50* NRAS WT FRET data
Chain of NRAS WT (P01111 whole entry): as the sequence (P01111 whole entry Q61R) above, with R61Q counted along it
Chain of NRAS WT (P62937 whole entry): as the sequence (P62937 whole entry) above
Procedure, shortened: as §1

KRAS G12S = KRAS G12S (Homo sapiens (Human), UniProt P01116+P62937, G12S); experiment: Ras-Raf (BRAF RBD) disruption / FRET / MOA assay, KRAS G12S; conditions: Ras-Raf disruption/FRET/MOA assay; class symbols; read-out: KRAS G12S FRET data IC50
Chain of KRAS G12S (P01116-2 other isoform, or with tags, fused parts or gaps G12S): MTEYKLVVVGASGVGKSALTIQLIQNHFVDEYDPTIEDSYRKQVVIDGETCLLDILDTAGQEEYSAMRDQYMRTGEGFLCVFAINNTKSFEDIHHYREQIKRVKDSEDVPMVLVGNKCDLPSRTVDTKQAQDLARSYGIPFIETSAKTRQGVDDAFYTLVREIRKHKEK
Chain of KRAS G12S (P62937 whole entry): as the sequence (P62937 whole entry) above
Procedure, shortened: (§2)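 Ras:RAF disruption was scored as a fall in TR-FRET ratio relative to DMSO. Compound ranged in 3-fold steps over 10 points from 30 μM final; incubation ran 3 h at 25° C, detection antibodies a further 1.5 h. Reported as IC50.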

NRAS G12C = NRAS G12C (Homo sapiens (Human), UniProt P01111+P62937, G12C); experiment: Ras-Raf (BRAF RBD) disruption / FRET / MOA assay, NRAS G12C; conditions: read-out: IC50* NRAS G12C FRET data
Chain of NRAS G12C (P01111 whole entry G12C): as the sequence (P01111 whole entry Q61R) above, with G12C, R61Q counted along it
Chain of NRAS G12C (P62937 whole entry): as the sequence (P62937 whole entry) above
Procedure, shortened: as §2

KRAS WT = KRAS WT (Homo sapiens (Human), UniProt P01116+P62937); experiment: Ras-Raf (BRAF RBD) disruption / FRET / MOA assay, KRAS WT; conditions: read-out: IC50* KRAS WT FRET data
Chain of KRAS WT (P01116-2 other isoform, or with tags, fused parts or gaps): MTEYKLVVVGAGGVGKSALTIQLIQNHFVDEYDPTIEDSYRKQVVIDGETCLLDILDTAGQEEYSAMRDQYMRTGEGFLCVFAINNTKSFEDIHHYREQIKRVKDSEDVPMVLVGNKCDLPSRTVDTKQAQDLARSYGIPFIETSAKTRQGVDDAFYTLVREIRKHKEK
Chain of KRAS WT (P62937 whole entry): as the sequence (P62937 whole entry) above
Procedure, shortened: as §2

KRAS G12D = KRAS G12D (Homo sapiens (Human), UniProt P01116+P62937, G12D); experiment: Ras-Raf (BRAF RBD) disruption / FRET / MOA assay, KRAS G12D; conditions: Ras-Raf disruption/FRET/MOA assay; class symbols; read-out: KRAS G12D FRET data IC50
Chain of KRAS G12D (P01116-2 other isoform, or with tags, fused parts or gaps G12D): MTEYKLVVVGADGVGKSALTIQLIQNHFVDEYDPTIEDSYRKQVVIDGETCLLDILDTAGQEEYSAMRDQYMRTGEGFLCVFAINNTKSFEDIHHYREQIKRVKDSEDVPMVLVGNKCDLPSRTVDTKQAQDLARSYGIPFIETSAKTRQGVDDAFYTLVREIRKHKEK
Chain of KRAS G12D (P62937 whole entry): as the sequence (P62937 whole entry) above
Procedure, shortened: as §2

KRAS Q61H = KRAS Q61H (Homo sapiens (Human), UniProt P01116+P62937, Q61H); experiment: Ras-Raf (BRAF RBD) disruption / FRET / MOA assay, KRAS Q61H; conditions: Ras-Raf disruption/FRET/MOA assay; class symbols; read-out: KRAS Q61H FRET data IC50
Chain of KRAS Q61H (P01116-2 other isoform, or with tags, fused parts or gaps Q61H): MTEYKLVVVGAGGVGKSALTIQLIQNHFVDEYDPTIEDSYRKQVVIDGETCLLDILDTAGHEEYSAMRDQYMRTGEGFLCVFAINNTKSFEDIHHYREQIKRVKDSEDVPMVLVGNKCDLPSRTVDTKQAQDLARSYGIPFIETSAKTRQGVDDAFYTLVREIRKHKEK
Chain of KRAS Q61H (P62937 whole entry): as the sequence (P62937 whole entry) above
Procedure, shortened: as §1

K-Ras G13C = K-Ras G13C (Homo sapiens (Human), UniProt P01116+P62937, G13C); experiment: Ras-Raf (BRAF RBD) disruption / FRET / MOA assay, KRAS G13C; conditions: KRAS G13C; Ras-Raf disruption/FRET/MOA assay; read-out: IC50* KRAS G13C FRET data
Chain of K-Ras G13C (P01116-2 other isoform, or with tags, fused parts or gaps G13C): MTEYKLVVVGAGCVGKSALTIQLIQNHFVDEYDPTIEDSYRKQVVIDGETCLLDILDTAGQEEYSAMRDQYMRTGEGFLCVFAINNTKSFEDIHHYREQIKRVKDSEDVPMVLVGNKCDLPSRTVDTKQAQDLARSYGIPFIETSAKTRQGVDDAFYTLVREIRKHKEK
Chain of K-Ras G13C (P62937 whole entry): as the sequence (P62937 whole entry) above
Procedure, shortened: as §2

Chain of NRAS Q61K (P01111 whole entry Q61K): as the sequence (P01111 whole entry Q61R) above, with R61K counted along it
Chain of NRAS Q61K (P62937 whole entry): as the sequence (P62937 whole entry) above

| pIC50 (NRAS Q61K) | pIC50 (NRAS Q61R) | pIC50 (NRAS WT) | pIC50 (KRAS G12S) | pIC50 (NRAS G12C) | pIC50 (KRAS WT) | pIC50 (KRAS G12D) | pIC50 (KRAS Q61H) | pIC50 (K-Ras G13C) | Compound |
| --- | --- | --- | --- | --- | --- | --- | --- | --- | --- |
| 5.00 to 6.00 | 5.00 to 6.00 | 6.00 to 7.00 | 5.00 to 6.00 | > 8.00 | 6.00 to 7.00 | 5.00 to 6.00 | 5.00 to 6.00 | 6.00 to 7.00 | CCn1c(-c2cccnc2[C@H](C)OC)c2c3cc(ccc31)N1CCO[C@@](C)(C[C@H](NC(=O)[C@H](C(C)C)N(C)C(=O)C3(F)CCN(C(=O)C#CC(C)(C)N(C)C)CC3)C(=O)N3CCC[C@H](N3)C(=O)OCC(C)(C)C2)C1 [Example A550] |
| 5.00 to 6.00 | < 5.00 | 5.00 to 6.00 | 5.00 to 6.00 | 6.00 to 7.00 | 5.00 to 6.00 | 5.00 to 6.00 | 5.00 to 6.00 | 6.00 to 7.00 | C=CC(=O)N1CCO[C@H]2CN(C(=O)N(C)[C@H](C(=O)N[C@H]3C[C@H]4CN(CCO4)c4ccc5c(c4)c(c(-c4cccnc4[C@H](C)OC)n5CC)CC(C)(C)COC(=O)[C@@H]4CCCN(N4)C3=O)C(C)C)C[C@H]21 [Example A562] |
